Source: patent US10647721B2, “Bicyclic heteroaryl derivatives” (Hoffmann-La Roche Inc., priority 2016, dated 2020)

Test system: γ-secretase
Assay: Cellular γ-secretase assay (inhibition of Aβ42 secretion, AlphaLisa)
Type: cell-based
Details: human neuroglioma H4 cells overexpressing human APP695 Swedish double mutation, 24 hr compound incubation
Protocol: Cellular γ-Secretase Assay
Human neuroglioma H4 cells overexpressing human APP695 with the Swedish double mutation (K595N/M596L) were plated at 30,000 cells/well/100 μl in 96-well plates in IMDM media containing 10% FCS, 0.2 mg/l Hygromycin B and incubated at 37° C., 5% CO2.
3-4 hr post plating, compounds are a diluted in media and 50 μl is added as 1.5-fold concentrate to achieve the final concentration. Compound incubation is performed for 24 hr. Final doses typically range from 4 μm down to 0.0013 μm in half-log steps resulting in a eight point dose response curve.
Appropriate controls using vehicle only and reference compound were applied to this assay. The final concentration of Me2SO was 0.4%.
After incubation at 37° C., 5% CO2, the supernatant was subjected to quantification of secreted Aβ42 by the means of an AlphaLisa assay kit (Human Amyloid beta 1-42 Kit: Cat # AL203C, Perkin Elmer). 20 μl of the cell culture supernatant was transferred to an assay plate. Then 10 μl of a mixture of the AlphaLisa coupled capture antibody and the biotinylated detection antibody was added and incubated for 3 hours at room temperature while softly shaking the assay plate. After a further addition of 20 μl of the Donor beads the assay plate was incubated for 30 min at room temperature and constant shaking without exposure to direct light. The assay plate was then read on a Paradigm AlphaLisa Reader using the build-in program with excitation at 680 nm and emission at […].
The measured signals were then used to calculate IC50 values for inhibition of Aβ42 secretion by nonlinear regression fit analysis using XLfit 5.3 software (IDBS).

Structure (SMILES)	EC50 [µM]
Cc1ncn(-c2ccc(Nc3nc4n(n3)CCCN4c3ccc(F)c(F)c3)cc2OC(F)F)n1 [Example 1, N-[3-(difluoromethoxy)-4-(3-methyl-1,2,4-triazol-1-yl)phenyl]-4-(3,4-difluorophenyl)-6,7-dihydro-5H-[1,2,4]triazolo[1,5-a]pyrimidin-2-amine]	0.0166
COc1cc(Nc2nc3n(n2)CCCN3c2ccc(F)c(F)c2)ccc1-n1cnc(C)n1 [Example 2, 4-(3,4-difluorophenyl)-N-[3-methoxy-4-(3-methyl-1,2,4-triazol-1-yl)phenyl]-6,7-dihydro-5H-[1,2,4]triazolo[1,5-a]pyrimidin-2-amine]	0.0142
COc1cc(Nc2nc3n(n2)CCCN3c2ccc(F)c(F)c2)ccc1-n1cnc(C(F)(F)F)c1 [Example 3, 4-(3,4-difluorophenyl)-N-[3-methoxy-4-[4-(trifluoromethyl)imidazol-1-yl]phenyl]-6,7-dihydro-5H-[1,2,4]triazolo[1,5-a]pyrimidin-2-amine]	0.037
COc1cc(Nc2nc3n(n2)CCCN3c2ccc(F)c(F)c2)ccc1-c1cnc(C)o1 [Example 4, 4-(3,4-difluorophenyl)-N-[3-methoxy-4-(2-methyloxazol-5-yl)phenyl]-6,7-dihydro-5H-[1,2,4]triazolo[1,5-a]pyrimidin-2-amine]	0.0143
COc1cc(Nc2nc3n(n2)CCCN3c2ccc(F)c(F)c2)cnc1-n1cnc(Cl)c1 [Example 5, N-[6-(4-chloroimidazol-1-yl)-5-methoxy-3-pyridyl]-4-(3,4-difluorophenyl)-6,7-dihydro-5H-[1,2,4]triazolo[1,5-a]pyrimidin-2-amine]	0.0214
COc1cc(Nc2nc3n(n2)CCCN3c2ccc(F)c(F)c2)ccc1-n1cnc(Cl)c1 [Example 6, N-[4-(4-chloroimidazol-1-yl)-3-methoxy-phenyl]-4-(3,4-difluorophenyl)-6,7-dihydro-5H-[1,2,4]triazolo[1,5-a]pyrimidin-2-amine]	0.0083
COc1cc(Nc2nc3n(n2)CCCCN3c2ccc(F)c(F)c2)ccc1-c1cnc(C)o1 [Example 7, 4-(3,4-difluorophenyl)-N-[3-methoxy-4-(2-methyloxazol-5-yl)phenyl]-5,6,7,8-tetrahydro-[1,2,4]triazolo[1,5-a][1,3]diazepin-2-amine]	0.0132
COc1cc(Nc2nc3n(n2)CCCCN3c2ccc(F)c(F)c2)ccc1-n1cnc(C)n1 [Example 8, 4-(3,4-difluorophenyl)-N-[3-methoxy-4-(3-methyl-1,2,4-triazol-1-yl)phenyl]-5,6,7,8-tetrahydro-[1,2,4]triazolo[1,5-a][1,3]diazepin-2-amine]	0.0358
COc1cc(Nc2nc3n(n2)CCCCN3c2ccc(F)c(F)c2)ccc1-n1cnc(Cl)c1 [Example 9, N-[4-(4-chloroimidazol-1-yl)-3-methoxy-phenyl]-4-(3,4-difluorophenyl)-5,6,7,8-tetrahydro-[1,2,4]triazolo[1,5-a][1,3]diazepin-2-amine]	0.0224
COc1cc(Nc2nc3n(n2)CCCCN3c2ccc(F)c(F)c2)ccc1-n1cnc(C(F)(F)F)c1 [Example 10, 4-(3,4-difluorophenyl)-N-[3-methoxy-4-[4-(trifluoromethyl)imidazol-1-yl]phenyl]-5,6,7,8-tetrahydro-[1,2,4]triazolo[1,5-a][1,3]diazepin-2-amine]	0.0619
Cc1ncn(-c2ccc(Nc3nc4n(n3)CCCN4c3ccc(F)c(F)c3)cc2F)n1 [Example 11, 4-(3,4-difluorophenyl)-N-[3-fluoro-4-(3-methyl-1,2,4-triazol-1-yl)phenyl]-6,7-dihydro-5H-[1,2,4]triazolo[1,5-a]pyrimidin-2-amine]	0.0345
COc1cc(Nc2nc3n(n2)CCCN3c2ccc(F)c(F)c2)ccc1-n1cnc(Cl)n1 [Example 12, N-[4-(3-chloro-1,2,4-triazol-1-yl)-3-methoxy-phenyl]-4-(3,4-difluorophenyl)-6,7-dihydro-5H-[1,2,4]triazolo[1,5-a]pyrimidin-2-amine]	0.0298
Cc1ncnn1-c1ccc(Nc2nc3n(n2)CCCN3c2ccc(F)c(F)c2)cc1F [Example 13, 4-(3,4-difluorophenyl)-N-[3-fluoro-4-(5-methyl-1,2,4-triazol-1-yl)phenyl]-6,7-dihydro-5H-[1,2,4]triazolo[1,5-a]pyrimidin-2-amine]	0.0248
Fc1ccc(N2CCCn3nc(Nc4ccc(-n5cncn5)c(F)c4)nc32)cc1F [Example 14, 4-(3,4-difluorophenyl)-N-[3-fluoro-4-(1,2,4-triazol-1-yl)phenyl]-6,7-dihydro-5H-[1,2,4]triazolo[1,5-a]pyrimidin-2-amine]	0.0899
COc1cc(Nc2nc3n(n2)CCCN3c2ccc(F)c(F)c2F)ccc1-c1cnc(C)o1 [Example 15, N-[3-methoxy-4-(2-methyloxazol-5-yl)phenyl]-4-(2,3,4-trifluorophenyl)-6,7-dihydro-5H-[1,2,4]triazolo[1,5-a]pyrimidin-2-amine]	0.0144
COc1cc(Nc2nc3n(n2)CCCN3c2ccc(F)c(F)c2F)ccc1-n1cnc(C)n1 [Example 16, N-[3-methoxy-4-(3-methyl-1,2,4-triazol-1-yl)phenyl]-4-(2,3,4-trifluorophenyl)-6,7-dihydro-5H-[1,2,4]triazolo[1,5-a]pyrimidin-2-amine]	0.0329
COc1cc(Nc2nc3n(n2)CCCN3c2ccc(F)c(F)c2F)ccc1-n1cnc(Cl)c1 [Example 17, N-[4-(4-chloroimidazol-1-yl)-3-methoxy-phenyl]-4-(2,3,4-trifluorophenyl)-6,7-dihydro-5H-[1,2,4]triazolo[1,5-a]pyrimidin-2-amine]	0.013

More lines, now with the values ahead:

EC50 [µM]	Structure (SMILES)
0.0225	Fc1ccc(N2CCCn3nc(Nc4ccc(-n5cnc(Cl)c5)c(F)c4)nc32)cc1F [Example 18, N-[4-(4-chloroimidazol-1-yl)-3-fluoro-phenyl]-4-(3,4-difluorophenyl)-6,7-dihydro-5H-[1,2,4]triazolo[1,5-a]pyrimidin-2-amine]
0.0204	Cc1ncc(-c2ccc(Nc3nc4n(n3)CCCN4c3ccc(F)c(F)c3)cc2F)o1 [Example 19, 4-(3,4-difluorophenyl)-N-[3-fluoro-4-(2-methyloxazol-5-yl)phenyl]-6,7-dihydro-5H-[1,2,4]triazolo[1,5-a]pyrimidin-2-amine]
0.0289	COc1cc(Nc2nc3n(n2)CCCN3c2ccc(F)c(F)c2)ccc1-c1cnn(C)c1 [Example 20, 4-(3,4-difluorophenyl)-N-[3-methoxy-4-(1-methylpyrazol-4-yl)phenyl]-6,7-dihydro-5H-[1,2,4]triazolo[1,5-a]pyrimidin-2-amine]
0.102	Fc1ccc(N2CCCn3nc(Nc4ccc(-n5cnc(Cl)n5)c(F)c4)nc32)cc1F [Example 21, N-[4-(3-chloro-1,2,4-triazol-1-yl)-3-fluoro-phenyl]-4-(3,4-difluorophenyl)-6,7-dihydro-5H-[1,2,4]triazolo[1,5-a]pyrimidin-2-amine]
0.0198	Cc1ncc(-c2ccc(Nc3nc4n(n3)CCCN4c3ccc(F)c(F)c3)cc2)o1 [Example 22, 4-(3,4-difluorophenyl)-N-[4-(2-methyloxazol-5-yl)phenyl]-6,7-dihydro-5H-[1,2,4]triazolo[1,5-a]pyrimidin-2-amine]
0.0312	Fc1ccc(N2CCCn3nc(Nc4ccc(-n5cnc(Cl)c5)cc4)nc32)cc1F [Example 23, N-[4-(4-chloroimidazol-1-yl)phenyl]-4-(3,4-difluorophenyl)-6,7-dihydro-5H-[1,2,4]triazolo[1,5-a]pyrimidin-2-amine]
0.009	N#Cc1cc(Nc2nc3n(n2)CCCN3c2ccc(F)c(F)c2)ccc1-n1cnc(Cl)c1 [Example 24, 2-(4-chloroimidazol-1-yl)-5-[[4-(3,4-difluorophenyl)-6,7-dihydro-5H-[1,2,4]triazolo[1,5-a]pyrimidin-2-yl]amino]benzonitrile]
0.0585	COc1cc(Nc2nc3n(n2)CCCN3c2ccc(F)c(F)c2)ccc1-c1cc(C)n[nH]1 [Example 25, 4-(3,4-difluorophenyl)-N-[3-methoxy-4-(3-methyl-1H-pyrazol-5-yl)phenyl]-6,7-dihydro-5H-[1,2,4]triazolo[1,5-a]pyrimidin-2-amine]
0.0238	N#Cc1cc(Nc2nc3n(n2)CCCN3c2ccc(F)c(F)c2)ccc1-n1cnc(C(F)F)c1 [Example 26, 2[4-(difluoromethyl)imidazol-1-yl]-5-[[4-(3,4-difluorophenyl)-6,7-dihydro-5H-[1,2,4]triazolo[1,5-a]pyrimidin-2-yl]amino]benzonitrile]
0.0202	Cc1ncc(-c2ccc(Nc3nc4n(n3)CCCN4c3ccc(F)c(F)c3)cc2C#N)o1 [Example 27, 5-[[4-(3,4-difluorophenyl)-6,7-dihydro-5H-[1,2,4]triazolo[1,5-a]pyrimidin-2-yl]amino]-2-(2-methyloxazol-5-yl)benzonitrile]
0.137	Fc1ccc(N2CCCn3nc(Nc4ccc(-n5cnc(Cl)c5)c(Cl)c4)nc32)cc1F [Example 28, N-[3-chloro-4-(4-chloroimidazol-1-yl)phenyl]-4-(3,4-difluorophenyl)-6,7-dihydro-5H-[1,2,4]triazolo[1,5-a]pyrimidin-2-amine]
0.0561	Cc1ncn(-c2ccc(Nc3nc4n(n3)CCCN4c3ccc(F)c(F)c3)cc2)n1 [Example 29, 4-(3,4-difluorophenyl)-N-[4-(3-methyl-1,2,4-triazol-1-yl)phenyl]-6,7-dihydro-5H-[1,2,4]triazolo[1,5-a]pyrimidin-2-amine]
